Test results reported in US20250186437A1, “CARBOLINE COMPOUNDS AND USE THEREOF” (PTC Therapeutics, Inc., priority 2021, published 2025).

Tested on: MOLM-13 cells
Experiment: MOLM-13 Cell Proliferation Assay (indicator of DHODH inhibition)
Assay type: cell-based
Conditions: Homo sapiens, 72 Hours of culture, CellTiter-Glo, no uridine
Summary of the method: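 Proliferation readout via CellTiter-Glo luminescence after 72 h compound treatment (37 °C, 5% CO2, 0.5% DMSO) of MOLM-13 cells seeded at 10^4 per well in RPMI 1640/10% FBS, used as a DHODH-inhibition indicator since these cells rely on de novo pyrimidine synthesis.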

For `Fc1cc(Br)ccc1C1c2[nH]c3ccc(Cl)cc3c2CCN1c1nccc(C(F)(F)F)n1` (stereo not shown) [Compound 268, 1-(4-bromo-2-fluorophenyl)-6-chloro-2-[4-(trifluoromethyl)pyrimidin-2-yl]-2,3,4,9-tetrahydro-1H-pyrido[3,4-b]indole], which IC50 is on record?
Its IC50 is 0.2 nM.

With `Oc1cc(C2c3[nH]c4ccc(Cl)cc4c3CCN2c2ncc(F)cn2)ccc1Cl` (stereo not shown) [Compound 219, 2-chloro-5-[6-chloro-2-(5-fluoropyrimidin-2-yl)-2,3,4,9-tetrahydro-1H-pyrido[3,4-b]indol-1-yl]phenol] as the compound, how does the IC50 read?
The IC50 was 23.3 nM.

`Clc1ccc2[nH]c3c(c2c1)CCN(c1ncc(-c2ccccc2)cn1)[C@H]3c1cnc(N2CCOCC2)nc1` [Compound 472, (1S)-6-chloro-1-[2-(morpholin-4-yl)pyrimidin-5-yl]-2-(5-phenylpyrimidin-2-yl)-2,3,4,9-tetrahydro-1H-pyrido[3,4-b]indole] was tested. Which IC50 did it give?
Its IC50 is 4.1 nM.

How did the IC50 turn out when `Cc1ccnc(N2CCc3c([nH]c4cc(F)c(Cl)cc34)C2c2cccc(F)c2F)n1` (stereo not shown) [Compound 63, 6-chloro-1-(2,3-difluorophenyl)-7-fluoro-2-(4-methylpyrimidin-2-yl)-2,3,4,9-tetrahydro-1H-pyrido[3,4-b]indole] was run?
The IC50 was 13.2 nM.

With `Cc1ccc(C2c3[nH]c4cc(F)c(Cl)cc4c3CCN2c2nc(C)c(C)c(C)n2)cc1` (stereo not shown) [Compound 163, 6-chloro-7-fluoro-1-(4-methylphenyl)-2-(4,5,6-trimethylpyrimidin-2-yl)-2,3,4,9-tetrahydro-1H-pyrido[3,4-b]indole] as the compound, how does the IC50 read?
The IC50 was 10.9 nM.

With `Fc1cnc(N2CCc3c([nH]c4cc(F)c(Cl)cc34)C2c2ccc(F)nc2)nc1` (stereo not shown) [Compound 47, 6-chloro-7-fluoro-1-(6-fluoropyridin-3-yl)-2-(5-fluoropyrimidin-2-yl)-2,3,4,9-tetrahydro-1H-pyrido[3,4-b]indole] as the compound, how does the IC50 read?
Its IC50 is 140 nM.

For `Cc1nc(N2CCc3c([nH]c4ccc(Cl)cc34)C2c2ccc(N3CCOCC3)nc2)ncc1F` (stereo not shown) [Compound 365, 6-chloro-2-(5-fluoro-4-methylpyrimidin-2-yl)-1-[6-(morpholin-4-yl)pyridin-3-yl]-2,3,4,9-tetrahydro-1H-pyrido[3,4-b]indole], which IC50 is on record?
Its IC50 is 8 nM.

For `CC(=O)c1ncc([C@H]2c3[nH]c4ccc(Cl)cc4c3CCN2c2nc(C(F)(F)F)nc(C(F)(F)F)n2)cn1` [Compound 533, 1-(5-{(1S)-2-[4,6-bis(trifluoromethyl)-1,3,5-triazin-2-yl]-6-chloro-2,3,4,9-tetrahydro-1H-pyrido[3,4-b]indol-1-yl}pyrimidin-2-yl)ethan-1-one], which IC50 is on record?
The IC50 was 4.7 nM.

Which IC50 does the source give for `Cc1ccc(C2c3[nH]c4ccc(Cl)cc4c3CCN2c2nc(C)nc(C(F)(F)F)n2)cc1` (stereo not shown) [Compound 437, 6-chloro-1-(4-methylphenyl)-2-[4-methyl-6-(trifluoromethyl)-1,3,5-triazin-2-yl]-2,3,4,9-tetrahydro-1H-pyrido[3,4-b]indole] here?
The IC50 was 1.8 nM.

For `Cc1ccc(C2c3[nH]c4ccc(F)cc4c3CCN2c2ncnc(C(F)(F)F)n2)c(F)c1F` (stereo not shown) [Compound 494, 1-(2,3-difluoro-4-methylphenyl)-6-fluoro-2-[4-(trifluoromethyl)-1,3,5-triazin-2-yl]-2,3,4,9-tetrahydro-1H-pyrido[3,4-b]indole], which IC50 is on record?
Its IC50 is 12 nM.

With `Cc1cc(C)nc(N2CCc3c([nH]c4cc(F)c(Cl)cc34)C2c2ccc(C#N)cc2)n1` (stereo not shown) [Compound 93, 4-[6-chloro-2-(4,6-dimethylpyrimidin-2-yl)-7-fluoro-2,3,4,9-tetrahydro-1H-pyrido[3,4-b]indol-1-yl]benzonitrile] as the compound, how does the IC50 read?
The IC50 was 9.7 nM.

How did the IC50 turn out when `Fc1cnc(N2CCc3c([nH]c4ccc(Cl)cc34)C2c2ccc(N3CCOCC3)nc2)nc1` (stereo not shown) [Compound 382, 6-chloro-2-(5-fluoropyrimidin-2-yl)-1-[6-(morpholin-4-yl)pyridin-3-yl]-2,3,4,9-tetrahydro-1H-pyrido[3,4-b]indole] was run?
Its IC50 is 13.4 nM.

For `Fc1ccc(C2c3[nH]c4cc(F)c(Cl)cc4c3CCN2c2nccc(C(F)(F)F)n2)c(F)n1` (stereo not shown) [Compound 184, 6-chloro-1-(2,6-difluoropyridin-3-yl)-7-fluoro-2-[4-(trifluoromethyl)pyrimidin-2-yl]-2,3,4,9-tetrahydro-1H-pyrido[3,4-b]indole], which IC50 is on record?
The IC50 was 8 nM.

`Cc1ccc(C2c3[nH]c4c(O)cc(Cl)cc4c3CCN2c2nccc(C(F)(F)F)n2)cc1` (stereo not shown) [Compound 207, 6-chloro-1-(4-methylphenyl)-2-[4-(trifluoromethyl)pyrimidin-2-yl]-2,3,4,9-tetrahydro-1H-pyrido[3,4-b]indol-8-ol] was tested. Which IC50 did it give?
Its IC50 is 2.2 nM.

With `Fc1cc2[nH]c3c(c2cc1Cl)CCN(c1ncc(C(F)(F)F)cn1)C3c1cccc(F)c1F` (stereo not shown) [Compound 133, 6-chloro-1-(2,3-difluorophenyl)-7-fluoro-2-[5-(trifluoromethyl)pyrimidin-2-yl]-2,3,4,9-tetrahydro-1H-pyrido[3,4-b]indole] as the compound, how does the IC50 read?
The IC50 was 11.2 nM.

How did the IC50 turn out when `Fc1ccc(C2c3[nH]c4ccc(Cl)c(F)c4c3CCN2c2ncc(F)cn2)cc1` (stereo not shown) [Compound 51, 6-chloro-5-fluoro-1-(4-fluorophenyl)-2-(5-fluoropyrimidin-2-yl)-2,3,4,9-tetrahydro-1H-pyrido[3,4-b]indole] was run?
The IC50 was 21.6 nM.

Which IC50 does the source give for `Cc1ccnc(N2CCc3c([nH]c4cc(F)c(Cl)cc34)C2c2ccc(C(F)(F)F)cc2)n1` (stereo not shown) [Compound 81, 6-chloro-7-fluoro-2-(4-methylpyrimidin-2-yl)-1-[4-(trifluoromethyl)phenyl]-2,3,4,9-tetrahydro-1H-pyrido[3,4-b]indole] here?
The IC50 was 40.1 nM.

How did the IC50 turn out when `Cc1ccc(C2c3[nH]c4ccc(Cl)cc4c3CCN2c2nc(C)cc(C#N)n2)cc1` (stereo not shown) [Compound 379, 2-[6-chloro-1-(4-methylphenyl)-1,3,4,9-tetrahydro-2H-pyrido[3,4-b]indol-2-yl]-6-methylpyrimidine-4-carbonitrile] was run?
Its IC50 is 4.5 nM.

How did the IC50 turn out when `Cc1ccc(C2c3[nH]c4cc(F)c(Cl)cc4c3CCN2c2ncc(F)cn2)c(F)c1F` (stereo not shown) [Compound 138, 6-chloro-1-(2,3-difluoro-4-methylphenyl)-7-fluoro-2-(5-fluoropyrimidin-2-yl)-2,3,4,9-tetrahydro-1H-pyrido[3,4-b]indole] was run?
Its IC50 is 3.5 nM.

For `CN(C)c1ccc(C2c3[nH]c4cc(F)c(Cl)cc4c3CCN2c2nccc(C(F)(F)F)n2)c(F)c1F` (stereo not shown) [Compound 173, 4-{6-chloro-7-fluoro-2-[4-(trifluoromethyl)pyrimidin-2-yl]-2,3,4,9-tetrahydro-1H-pyrido[3,4-b]indol-1-yl}-2,3-difluoro-N,N-dimethylaniline], which IC50 is on record?
Its IC50 is 8.6 nM.

With `Oc1cc(Cl)ccc1C1c2[nH]c3ccc(Cl)cc3c2CCN1c1ncc(F)cn1` (stereo not shown) [Compound 221, 5-chloro-2-[6-chloro-2-(5-fluoropyrimidin-2-yl)-2,3,4,9-tetrahydro-1H-pyrido[3,4-b]indol-1-yl]phenol] as the compound, how does the IC50 read?
Its IC50 is 4.2 nM.

`Cc1ccc(C2c3[nH]c4cc(F)c(Cl)cc4c3CCN2c2ncc(Cl)cn2)cc1` (stereo not shown) [Compound 41, 6-chloro-2-(5-chloropyrimidin-2-yl)-7-fluoro-1-(4-methylphenyl)-2,3,4,9-tetrahydro-1H-pyrido[3,4-b]indole] was tested. Which IC50 did it give?
Its IC50 is 19.6 nM.

`Cc1nc(C)nc(N2CCc3c([nH]c4ccc(Cl)cc34)C2c2ccc(C#N)cc2F)n1` (stereo not shown) [Compound 453, 4-[6-chloro-2-(4,6-dimethyl-1,3,5-triazin-2-yl)-2,3,4,9-tetrahydro-1H-pyrido[3,4-b]indol-1-yl]-3-fluorobenzonitrile] was tested. Which IC50 did it give?
Its IC50 is 4.9 nM.

For `Cc1cccc(C2c3[nH]c4ccc(Cl)cc4c3CCN2c2nccc(C(F)(F)F)n2)c1F` (stereo not shown) [Compound 259, 6-chloro-1-(2-fluoro-3-methylphenyl)-2-[4-(trifluoromethyl)pyrimidin-2-yl]-2,3,4,9-tetrahydro-1H-pyrido[3,4-b]indole], which IC50 is on record?
The IC50 was 1 nM.

`CN(C)c1ncc(C2c3[nH]c4ccc(Cl)c(F)c4c3CCN2c2nccc(C(F)(F)F)n2)cn1` (stereo not shown) [Compound 178, 5-{6-chloro-5-fluoro-2-[4-(trifluoromethyl)pyrimidin-2-yl]-2,3,4,9-tetrahydro-1H-pyrido[3,4-b]indol-1-yl}-N,N-dimethylpyrimidin-2-amine] was tested. Which IC50 did it give?
The IC50 was 3.4 nM.

With `C=Cc1ccc(C2c3[nH]c4ccc(Cl)cc4c3CCN2c2ncc(F)cn2)cc1` (stereo not shown) [Compound 71, 6-chloro-1-(4-ethenylphenyl)-2-(5-fluoropyrimidin-2-yl)-2,3,4,9-tetrahydro-1H-pyrido[3,4-b]indole] as the compound, how does the IC50 read?
Its IC50 is 19.3 nM.

`Cc1ccc(C2c3[nH]c4ccc(F)cc4c3CCN2c2nccc(C(F)(F)F)n2)c(F)c1F` (stereo not shown) [Compound 493, 1-(2,3-difluoro-4-methylphenyl)-6-fluoro-2-[4-(trifluoromethyl)pyrimidin-2-yl]-2,3,4,9-tetrahydro-1H-pyrido[3,4-b]indole] was tested. Which IC50 did it give?
The IC50 was 25 nM.

`Cc1ccc(C2c3[nH]c4ccc(Cl)c(F)c4c3CCN2c2nccc(C(F)(F)F)n2)cc1` (stereo not shown) [Compound 76, 6-chloro-5-fluoro-1-(4-methylphenyl)-2-[4-(trifluoromethyl)pyrimidin-2-yl]-2,3,4,9-tetrahydro-1H-pyrido[3,4-b]indole] was tested. Which IC50 did it give?
Its IC50 is 2.5 nM.

For `Cc1nc(C)nc(N2CCc3c([nH]c4ccc(N(C)C)cc34)C2c2cnc(N3CCOCC3)nc2)n1` (stereo not shown) [Compound 331, 2-(4,6-dimethyl-1,3,5-triazin-2-yl)-N,N-dimethyl-1-[2-(morpholin-4-yl)pyrimidin-5-yl]-2,3,4,9-tetrahydro-1H-pyrido[3,4-b]indol-6-amine], which IC50 is on record?
The IC50 was 102 nM.

How did the IC50 turn out when `Fc1cnc(N2CCc3c([nH]c4cc(F)c(Cl)cc34)C2c2ccc(C(F)(F)F)cc2)nc1` (stereo not shown) [Compound 35, 6-chloro-7-fluoro-2-(5-fluoropyrimidin-2-yl)-1-[4-(trifluoromethyl)phenyl]-2,3,4,9-tetrahydro-1H-pyrido[3,4-b]indole] was run?
Its IC50 is 43.2 nM.

With `Cc1cc(C(F)(F)F)nc(N2CCc3c([nH]c4cc(F)c(Cl)cc34)C2c2ccc(C#N)cc2)n1` (stereo not shown) [Compound 88, 4-{6-chloro-7-fluoro-2-[4-methyl-6-(trifluoromethyl)pyrimidin-2-yl]-2,3,4,9-tetrahydro-1H-pyrido[3,4-b]indol-1-yl}benzonitrile] as the compound, how does the IC50 read?
The IC50 was 2.3 nM.
